A word on the IC50: it is the midpoint of a concentration-inhibition curve.

Chain of HSD17B13 (Q7Z5P4 other isoform, or with tags, fused parts or gaps): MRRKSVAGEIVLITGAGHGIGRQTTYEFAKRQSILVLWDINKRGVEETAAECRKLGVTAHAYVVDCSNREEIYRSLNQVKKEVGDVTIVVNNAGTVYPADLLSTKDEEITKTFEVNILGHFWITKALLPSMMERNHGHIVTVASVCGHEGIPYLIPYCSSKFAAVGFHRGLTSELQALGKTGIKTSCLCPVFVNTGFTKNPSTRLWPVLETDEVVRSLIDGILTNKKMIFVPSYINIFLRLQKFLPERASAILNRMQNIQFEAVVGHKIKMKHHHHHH

This test addresses HSD17B13 (Homo sapiens (Human), UniProt Q7Z5P4). Put plainly: HSD17B13 enzymatic inhibition assay (150 nM or 50 nM HSD17B13). It counts as biochemical. As to conditions: 50 nM HSD17B13; read-out: Inhibition of 50 nM of HSD17B13 IC50.
For the compound `CC[C@@H]1C[C@@H](NC(=O)c2ccc(C(F)(F)F)[nH]c2=O)c2ccc(C)cc2N1` [Compound 367, N-((2R,4R)-2-ethyl-7-methyl-1,2,3,4-tetrahydroquinolin-4-yl)-2-oxo-6-(trifluoromethyl)-1,2-dihydropyridine-3-carboxamide], the IC50 turned out to be 380 nM. Take `Cc1ccc2c(c1)[C@H](NC(=O)c1ccc(C(F)(F)F)[nH]c1=O)C[C@H](C)N2` [Compound 371, N-((2S,4R)-2,6-dimethyl-1,2,3,4-tetrahydroquinolin-4-yl)-2-oxo-6-(trifluoromethyl)-1,2-dihydropyridine-3-carboxamide]: the IC50 was found to be 1420 nM.

Take `CCN1Cc2cc(C)ccc2C(NC(=O)c2ccc(C(F)(F)F)[nH]c2=O)C1=O` (centres unmarked) [Compound 373, N-(2-ethyl-7-methyl-3-oxo-1,2,3,4-tetrahydroisoquinolin-4-yl)-2-oxo-6-(trifluoromethyl)-1,2-dihydropyridine-3-carboxamide]: the IC50 amounted to 1730 nM.

For the compound `Cc1ccc2c(c1)CNC(=O)C2NC(=O)c1ccc(C(F)(F)F)[nH]c1=O` (centres unmarked) [Compound 374, N-(7-methyl-3-oxo-1,2,3,4-tetrahydroisoquinolin-4-yl)-2-oxo-6-(trifluoromethyl)-1,2-dihydropyridine-3-carboxamide], the IC50 came out at 2490 nM.

Consider `Cc1ccc2c(c1)CN(C)C(=O)C2NC(=O)c1ccc(C(F)(F)F)[nH]c1=O` (centres unmarked) [Compound 375, N-(2,7-dimethyl-3-oxo-1,2,3,4-tetrahydroisoquinolin-4-yl)-2-oxo-6-(trifluoromethyl)-1,2-dihydropyridine-3-carboxamide], for which the IC50 turned out to be 2400 nM. To `Cc1ccc2c(c1)c(NC(=O)c1ccc(C(F)(F)F)[nH]c1=O)cn2C` [Compound 376, N-(1,5-dimethyl-1H-indol-3-yl)-2-oxo-6-(trifluoromethyl)-1,2-dihydropyridine-3-carboxamide] belongs 2840 nM; to `Cc1ccc2[nH]cc(NC(=O)c3ccc(C(F)(F)F)[nH]c3=O)c2c1` [Compound 377, N-(5-methyl-1H-indol-3-yl)-2-oxo-6-(trifluoromethyl)-1,2-dihydropyridine-3-carboxamide], 7770 nM. Turning to `Cc1ccc2[nH]c(C)c(NC(=O)c3ccc(C(F)(F)F)[nH]c3=O)c2c1` [Compound 378, N-(2,5-dimethyl-1H-indol-3-yl)-2-oxo-6-(trifluoromethyl)-1,2-dihydropyridine-3-carboxamide], the IC50 is 760 nM. To `Cc1ccc2c(NC(=O)c3ccc(C(F)(F)F)[nH]c3=O)cn(C)c2c1` [Compound 379, N-(1,6-dimethyl-1H-indol-3-yl)-2-oxo-6-(trifluoromethyl)-1,2-dihydropyridine-3-carboxamide] belongs 4820 nM; to `Cc1ccc2c(NC(=O)c3ccc(C(F)(F)F)[nH]c3=O)coc2c1` [Compound 380, N-(6-methylbenzofuran-3-yl)-2-oxo-6-(trifluoromethyl)-1,2-dihydropyridine-3-carboxamide], over 10000 nM.

Take `CCCC1CC(NC(=O)c2ccc(C(F)(F)F)[nH]c2=O)c2ccc(C)cc2S1` (centres unmarked) [Compound 381, N-(7-methyl-2-propylthiochroman-4-yl)-2-oxo-6-(trifluoromethyl)-1,2-dihydropyridine-3-carboxamide]: the IC50 is 130 nM. Regarding `CCCC1CC(NC(=O)c2ccc(C(F)(F)F)[nH]c2=O)c2cc(C)ccc2S1` (centres unmarked) [Compound 382, N-(6-methyl-2-propylthiochroman-4-yl)-2-oxo-6-(trifluoromethyl)-1,2-dihydropyridine-3-carboxamide], the IC50 came to 130 nM.

For the compound `Cc1ccc2c(c1)C(NC(=O)c1ccc(C(F)(F)F)[nH]c1=O)CC(C)S2` (centres unmarked) [Compound 386, N-(2,6-dimethylthiochroman-4-yl)-2-oxo-6-(trifluoromethyl)-1,2-dihydropyridine-3-carboxamide], the half-inhibitory concentration (IC50) amounted to 170 nM.

Regarding `COc1ccc2c(c1)CC(C)CC2NC(=O)c1ccc(C(F)(F)F)[nH]c1=O` (centres unmarked) [Compound 389, N-(6-methoxy-3-methyl-1,2,3,4-tetrahydronaphthalen-1-yl)-2-oxo-6-(trifluoromethyl)-1,2-dihydropyridine-3-carboxamide], the IC50 is 580 nM. To `Cc1ccc2c(c1)CC(C)CC2NC(=O)c1ccc(C(F)(F)F)[nH]c1=O` (centres unmarked) [Compound 391, N-(3,6-dimethyl-1,2,3,4-tetrahydronaphthalen-1-yl)-2-oxo-6-(trifluoromethyl)-1,2-dihydropyridine-3-carboxamide] belongs 50 nM; to `CCCC1Cc2cc(OC)ccc2C(NC(=O)c2ccc(C(F)(F)F)[nH]c2=O)C1` (centres unmarked) [Compound 392, N-(6-methoxy-3-propyl-1,2,3,4-tetrahydronaphthalen-1-yl)-2-oxo-6-(trifluoromethyl)-1,2-dihydropyridine-3-carboxamide], 80 nM.

With `Cc1ccc2c(c1)C(NC(=O)c1ccc(C(F)(F)F)[nH]c1=O)CS2` (centres unmarked) [Compound 393, N-(5-methyl-2,3-dihydrobenzo[b]thiophen-3-yl)-2-oxo-6-(trifluoromethyl)-1,2-dihydropyridine-3-carboxamide], the IC50 was 1230 nM. In the case of `Cc1ccc2c(c1)C(NC(=O)c1ccc(C(F)(F)F)[nH]c1=O)CC(C)O2` (centres unmarked) [Compound 394, N-(2,6-dimethylchroman-4-yl)-2-oxo-6-(trifluoromethyl)-1,2-dihydropyridine-3-carboxamide], the IC50 was found to be 260 nM. With `Cc1ccc2c(c1)OCC2NC(=O)c1ccc(C(F)(F)F)[nH]c1=O` (centres unmarked) [Compound 395, N-(6-methyl-2,3-dihydrobenzofuran-3-yl)-2-oxo-6-(trifluoromethyl)-1,2-dihydropyridine-3-carboxamide], the IC50 stood at 9170 nM. As to `Cc1ccc2c(c1)SCCC2NC(=O)c1ccc(C(F)(F)F)[nH]c1=O` (centres unmarked) [Compound 396, N-(7-methylthiochroman-4-yl)-2-oxo-6-(trifluoromethyl)-1H-pyridine-3-carboxamide], the IC50 turned out to be 260 nM.

For the compound `Cc1ccc([C@H](NC(=O)c2ccc(C(F)(F)F)[nH]c2=O)[C@@H]2CCCOC2)cc1` [Compound 397, 2-oxo-N—((R)—((S)-tetrahydro-2H-pyran-3-yl)(p-tolyl)methyl)-6-(trifluoromethyl)-1,2-dihydropyridine-3-carboxamide], the IC50 is 2970 nM. In the case of `Cc1ccc([C@H](NC(=O)c2ccc(C(F)(F)F)[nH]c2=O)[C@H]2CCCOC2)cc1` [Compound 398, 2-oxo-N—((R)—((R)-tetrahydro-2H-pyran-3-yl)(p-tolyl)methyl)-6-(trifluoromethyl)-1,2-dihydropyridine-3-carboxamide] it was 6150 nM.

For `CC1CCC(C(NC(=O)c2ccc(C(F)(F)F)[nH]c2=O)c2ccccc2)CC1` (centres unmarked) [Compound 399, N-((4-methylcyclohexyl)(phenyl)methyl)-2-oxo-6-(trifluoromethyl)-1,2-dihydropyridine-3-carboxamide], the IC50 was found to be 300 nM. With `Cc1ccc(C(NC(=O)c2ccc(C(F)(F)F)[nH]c2=O)C2CCC(C)CC2)cc1` (centres unmarked) [Compound 400, N-((4-methylcyclohexyl)(p-tolyl)methyl)-2-oxo-6-(trifluoromethyl)-1,2-dihydropyridine-3-carboxamide], the IC50 was determined as 230 nM.

In the case of `CCCC(NC(=O)c1ccc(C(F)(F)F)[nH]c1=O)c1ccc(C)cc1` (centres unmarked) [Compound 402, 2-oxo-N-(1-(p-tolyl)butyl)-6-(trifluoromethyl)-1,2-dihydropyridine-3-carboxamide], the IC50 stood at 360 nM. To `CCCC1CC(NC(=O)c2ccc(C(F)(F)F)[nH]c2=O)c2cc(C)ccc2O1` (centres unmarked) [Compound 403, N-(6-methyl-2-propylchroman-4-yl)-2-oxo-6-(trifluoromethyl)-1,2-dihydropyridine-3-carboxamide] belongs 110 nM; to `CCC1CC(NC(=O)c2ccc(C(F)(F)F)[nH]c2=O)c2cc(C)ccc2O1` (centres unmarked) [Compound 404, N-(2-ethyl-6-methylchroman-4-yl)-2-oxo-6-(trifluoromethyl)-1,2-dihydropyridine-3-carboxamide], 220 nM; to `Cc1ccc2c(c1)C(NC(=O)c1ccc(C(F)(F)F)[nH]c1=O)CO2` (centres unmarked) [Compound 408, N-(5-methyl-2,3-dihydrobenzofuran-3-yl)-2-oxo-6-(trifluoromethyl)-1,2-dihydropyridine-3-carboxamide], 2470 nM. Consider `COc1ccc2c(c1)Sc1cc(N)ccc1C2NC(=O)c1ccc(C(F)F)[nH]c1=O` (centres unmarked) [Compound 410, N-(3-amino-6-methoxy-9H-thioxanthen-9-yl)-6-(difluoromethyl)-2-oxo-1,2-dihydropyridine-3-carboxamide], for which the IC50 was 430 nM. As to `COc1ccc2c(c1)Sc1cc(N)ccc1C2NC(=O)c1ccc(C(F)(F)F)[nH]c1=O` (centres unmarked) [Compound 411, N-(3-amino-6-methoxy-9H-thioxanthen-9-yl)-2-oxo-6-(trifluoromethyl)-1,2-dihydropyridine-3-carboxamide], the IC50 was found to be 80 nM. With `Cc1ccc(C(CC2CCCC2)NC(=O)c2ccc(C(F)(F)F)[nH]c2=O)cc1` (centres unmarked) [Compound 412, N-(2-cyclopentyl-1-(p-tolyl)ethyl)-2-oxo-6-(trifluoromethyl)-1,2-dihydropyridine-3-carboxamide], the IC50 came out at 110 nM. In the case of `O=C(NC1c2cc(OC(F)(F)F)ccc2-c2ccc(OC(F)(F)F)cc21)c1ccc(C(F)(F)F)[nH]c1=O` [Compound 413, N-(2,7-bis(trifluoromethoxy)-9H-fluoren-9-yl)-2-oxo-6-(trifluoromethyl)-1,2-dihydropyridine-3-carboxamide], the IC50 was 880 nM. In the case of `COc1ccc2c(c1)C(NC(=O)c1ccc(C(F)(F)F)[nH]c1=O)c1cc(OC)ccc1-2` [Compound 415, N-(2,7-dimethoxy-9H-fluoren-9-yl)-2-oxo-6-(trifluoromethyl)-1,2-dihydropyridine-3-carboxamide] it was 50 nM; in that of `Cc1ccc2c(c1)C(NC(=O)c1ccc(C(F)(F)F)[nH]c1=O)c1cc(C)ccc1-2` [Compound 418, N-(2,7-dimethyl-9H-fluoren-9-yl)-2-oxo-6-(trifluoromethyl)-1,2-dihydropyridine-3-carboxamide], 70 nM; in that of `CNc1ccc(C(NC(=O)c2ccc(C(F)(F)F)[nH]c2=O)c2ccc(C)cc2)cc1` (centres unmarked) [Compound 420, N-((4-(methylamino)phenyl)(p-tolyl)methyl)-2-oxo-6-(trifluoromethyl)-1,2-dihydropyridine-3-carboxamide], 130 nM.

These data come from patent US11957687B2 (REGENERON PHARMACEUTICALS, INC., priority 2019, dated 2024).
